The values that follow are results of earlier work, collected in patent US9943555B2, “Bacteria engineered to reduce hyperphenylalaninemia” (Synlogic, Inc., priority 2015, dated 2018).

This series has as its system patients / subjects with phenylketonuria.

With `C[C@H](O)[C@H](O)[C@H]1CNc2nc(N)[nH]c(=O)c2N1` [Kuvan, tetrahydrobiopterin], the side effects result is “gastritis and severe allergic reactions”.
